For experiment [1], the system named is RED STAR yeast. In words: Conventional simultaneous saccharification fermentation (SSF) of liquefied corn mash, ethanol yield by weight loss and HPLC. It is filed as cell-based. The settings on record: weight loss method, all the enzymes tested, FIGS. 1, 2 and 3. The method, then:
Liquefied corn mash was used to evaluate the effect of adding salicylic acid (SA) to a known enzyme dosage of
The performance of these enzymes was compared to controls without salicylic acid addition. The experimental set-up used is described in table below.
5.5 g of RED STAR™ yeast was rehydrated in 100 mL distilled water and incubated at 32° C. for 30 minutes prior to the beginning of fermentation. Approximately 50 million cells/g DS of yeast were added to each of the fermentations.
The corn mash was thawed to room temperature. Urea and Penicillin were added to a final concentration of […] and 3 mg/L respectively. Small-scale (˜4 g) fermentations were carried out in 15 mL polypropylene tubes with five replicates for each experimental condition. The tubes were prepared by drilling a 1/32 inch (1.5 mm) hole and the empty tubes were then weighed before liquefied corn mash was added. The tubes were weighed again after mash was added to determine the exact weight of mash in each tube. This weight was used to calculate the enzyme dosage necessary as follows:
Enzyme was added according to dosage described in table above and 100 μl of rehydrated yeast were added to each tube to begin fermentation. Fermentation progress was followed by weighing the tubes over time for approximately 70 hours. Tubes were vortexed briefly before each weighing. […]

Experiment [2] has as its system yeast. In words: One-step fermentation of ground corn slurry with T. cingulata GA + R. pusillus AA blend, ethanol by HPLC. Type of experiment: cell-based. To be noted: for Ethanol yield: one-step fermentation. The method, then: All treatments were evaluated via mini-scale fermentations. 410 g of ground yellow dent corn (with an average particle size around 0.5 mm) was added to 590 g tap water. This mixture was supplemented with 3.0 mL 1 g/L penicillin and 1 g of urea. The pH of this slurry was adjusted to 4.5 with 40% H2SO4. Dry solid (DS) level was determined to be 35 wt. %. Approximately 5 g of this slurry was added to 20 mL vials. Each vial was dosed with the appropriate amount of enzyme dosage shown in Table 2 below followed by addition of 200 microL yeast propagate/5 g slurry. Actual enzyme dosages were based on the exact weight of corn slurry in each vial. Vials were incubated at 32° C. Nine replicate fermentations of each treatment were run. Three replicates were selected for 24 hours, 48 hours and 70 hours time point analysis. Vials were vortexed at 24, 48 and 70 hours and analyzed by HPLC. The HPLC preparation consisted of stopping the reaction by addition of 50 microL of 40% H2SO4, centrifuging, and filtering through a 0.45 micrometer filter. Samples were stored at 4 C until analysis. Agilent™ 1100 HPLC system coupled with RI detector was used to determine ethanol and oligosaccharides concentration. The separation column was aminex HPX-87H ion exclusion column (300 mm×7.8 mm) from BioRad™).
The experiment was carried out as described in Example 2, except that salicylic acid (SA) was replaced with acetyl salicylic acid (ASA). The treatment and enzyme dosing was described in table below.

The subject of experiment [3] is RED STAR yeast. In words: Dose/response study of salicylic acid in conventional SSF. Type of experiment: cell-based. The method, then:
The experiment was carried out as described in Example 1, except that the following enzyme blends was used for all treatments: • 0.3 AGU Talaromyces emersonii glucoamylase/g DS; • 0.0025 mg Rhizomucor pusillus alpha-amylase/g DS; and • 0.0125 mg Trametes cingulata glucoamylase/g DS. All treatments and controls included 8 replicates. [table]

Experiment [4] concerns yeast. In words: Yield boosting effect of salicylic acid on ethanol production from starch-containing material (conventional SSF), summary findings. It is filed as cell-based. The text has this:
Further, the effect on yeast growth is 2-fold.

Experiment [5] has as its system Pichia stipitis (CBS6054). To be noted: salicylic acid 5 mM, 30° C., pH 6, FIG. 9.

The values below come from patent US20080145903A1, “PROCESSES OF PRODUCING FERMENTATION PRODUCTS” (priority 2006, published 2008).

In the case of `O=C(O)c1ccccc1O` [SA, salicylic acid], in experiment [1], the “Fermentation kinetic and final ethanol yield” value was “increases the fermentation kinetic and also final ethanol yield”. The Ethanol yield in experiment [2] (SA 1 mM (mM/g DS), 24 hours) amounted to 107.77; in experiment [2] (SA 1 mM (mM/g DS), 48 hours), 144.61; in experiment [2] (SA 1 mM (mM/g DS), 70 hours), 151.80; in experiment [2] (SA 2.5 mM (mM/g DS), 24 hours), 107.53; in experiment [2] (SA 2.5 mM (mM/g DS), 48 hours), 143.11; in experiment [2] (SA 2.5 mM (mM/g DS), 70 hours), 150.80. Moreover, the Ethanol yield in experiment [2] (SA 5 mM (mM/g DS), 24 hours) came to 104.46; in experiment [2] (SA 5 mM (mM/g DS), 48 hours), 137.21; in experiment [2] (SA 5 mM (mM/g DS), 70 hours) it was 146.07; in experiment [2] (SA 15 mM (mM/g DS), 24 hours), 75.03; in experiment [2] (SA 15 mM (mM/g DS), 48 hours), 117.40; in experiment [2] (SA 15 mM (mM/g DS), 70 hours), 126.40. In experiment [2] (Trametes cingulata GA and Rhizomucor pusillus AA blend, FIG. 4), the “Fermentation speed and final ethanol yield” value is “increases the fermentation speed and final ethanol yield”. For the same compound, in experiment [3] (HPLC, as a function of SA dose, FIG. 8), the “Glycerol after 70 hours of fermentation” value is on record as “consistently reduced the amount of the by-product glycerol”. Further, the “Fermentation kinetics and final ethanol yield” value in experiment [3] (weight loss data, FIG. 6) was “increased the fermentation kinetics and final ethanol yield”. Also, the Residual glucose result in experiment [4] (at high salicylic acid concentrations) is listed as “increased”. The “Effect on yeast growth” value in experiment [4] (at higher concentrations) was “reduce yeast growth”. Further, the “Effect on cell growth” value in experiment [4] (at lower concentration) was “positive effect on cell growth”. The Effective concentration range in experiment [4] (by HPLC) fell in the range of 1.25 to 2.5 mM; in experiment [4] (by weight loss determination), 0.63 to 2.5 mM. Further, the values for the Maximum ethanol increase in experiment [4] (by HPLC) and in experiment [4] (by weight loss determination) were 1.3% and 3.5%, respectively. Moreover, in experiment [4] (with increasing salicylic acid concentration), the Glycerol production result is reported as “decreased dramatically”. Besides, the “Ability of P. stipitis to tolerate the inhibitors in the unwashed biomass hydrolyzate” value in experiment [5] was “improves the ability of P. stipitis to tolerate the inhibitors”.

On to `CC(=O)Oc1ccccc1C(=O)O` [ASA, acetyl salicylic acid, reference compound], for which the Ethanol yield in experiment [2] (ASA 1 mM (mM/g DS), 24 hours) is 108.19; in experiment [2] (ASA 1 mM (mM/g DS), 48 hours), 153.37; in experiment [2] (ASA 1 mM (mM/g DS), 70 hours), 160.39. Also, the “Fermentation kinetic and final ethanol yield” value in experiment [2] (ASA 1.0 mM/g DS, FIG. 5) was “gave an increase in fermentation kinetic and also final ethanol yield”.
